Values after ≈ are worked out from the molar mass of the structure shown. “Also recorded” adds a separate entry of the source.

The test system of one test is Mucorales. Briefly: Deferasirox susceptibilities of multiple clinical isolates of Mucorales (summary). In kind it is cell-based. The protocol: Minimum inhibitory concentration (MIC) and minimum fungicidal concentration (MFC) were determined for deferasirox by the method of Espinel-Ingroff using R. oryzae spores starved for iron (Espinel-Ingroff, (2001), supra). Cidality was defined as a <4-fold difference between MIC and MFC.
We next determined the deferasirox susceptibilities of multiple clinical isolates of Mucorales (Table 3). The MIC9OS of deferasirox against Mucor, non-oryzae Rhizopus spp., and R. oryzae were 3.12 to 6.25 μg/ml. MFCs were similar to MICs, and deferasirox was cidal for 28/29 (97%) of isolates. Of note, slight growth was seen within the first twelve hours even at extremely high concentrations of deferasirox. […] Furthermore, the MICs and MFCs of deferasirox against these isolates were well below clinically achievable peak (˜38 μg/ml) and trough serum levels (˜17 μg/ml) of the drug at steady state when administered at the FDA-approved starting dose (20 mg/kg/d).

A further test relates to rFTR1. Briefly: Expression analysis of the high affinity iron permease gene (rFTR1) by RT-PCR. Format: cell-based, Rhizopus oryzae. The settings on record: R. oryzae 99-880 mycelia; 2 mM deferasirox plus 350 μM ferric chloride, 1 h at 37° C. The protocol:
R. oryzae 99-880 plugs taken from a confluent PDA plate were grown in potato dextrose broth overnight at 37° C. with shaking. Mycelia were collected aseptically and transferred to fresh PDB flasks containing 350 μM ferric chloride (to suppress the expression of rFTR1), 350 μM ferric chloride plus 2 mM deferasirox to test iron chelation, or 2 mM deferasirox plus 6 mM ferric chloride to supersaturate the added deferasirox. The flasks were incubated for 1 h at 37° C. with shaking. Mycelia were collected by filtration and ground in liquid nitrogen using mortar and pestle. Total RNA was extracted using RNeasy Plabt Mini™ kit (Qiagen®) with RLC buffer. The RNA was reverse-transcribed with oligo(dT) primer using the SuperScript™ First-Strand Synthesis System (Invitrogen®) to generate first-strand cDNA. The products were diluted and used in PCR to detect the expression of FTR1 of R. oryzae and 18 s rDNA gene. The sequences of the PCR primers are as follows: sense primer 5′-[…] -3′ and anti-sense primer 5′-[…] -3′ for rFTR1 to amplify of R. oryzae; and sense primer 5′-[…]′T′[…] -3′ and anti-sense primer 5′-[…] -3′ for 18 s rDNA gene. The PCR products were separated on a 2% agarose gel containing 0.1 μg/ml ethidium bromide. Both primer sets were designed to amplify a 400 by bands. […]

With `O=C(O)c1ccc(-n2nc(-c3ccccc3O)nc2-c2ccccc2O)cc1` [Deferasirox, 4-[3,5-Bis(2-hydroxyphenyl)-1H-1,2,4-triazol-1-yl]-benzoic acid], the “isolates for which deferasirox was cidal” value with Mucorales (28/29 isolates) was determined as 97%. The MIC in the test with Mucorales (Rhizopus arrhizus, read-out: MIC90s against Mucor, non-oryzae Rhizopus spp., and R. oryzae) was in the range of 3.12 to 6.25 µg/mL (≈ 8.36 to 16.7 µM). Further, the dependence of cidality result in the test on Mucorales (slight growth within first twelve hours, fungi dead by 24 hours) is on record as “time-dependent, rather than concentration-dependent”. The “rFTR1 gene expression (RT-PCR)” value in the test on rFTR1 was “expressed; also recorded: induces rFTR1 gene expression”.
